Laboratory results as given in patent US11453666B2, “Autotaxin inhibitory compounds” (Cancer Research Technology Limited, priority 2015, dated 2022).
Read-outs that look alike come from different tables or passages of the source.

Molecular target: human recombinant ATX (Homo sapiens, UniProt Q13822)
Test: Autotaxin (ATX) activity Quanta Red assay
Type: biochemical
Summary of the method: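 Recombinant human ATX reaction stopped after 2 h with Quanta Red stop solution; fluorescence read at […]. Controls with DMSO, with and without ATX; IC50 in duplicate.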

[1] = read-out: Activity (ATX activity, Quanta Red assay; IC50)
[2] = Table 2: additional compounds tested for ATX activity (Quanta Red Assay), read-out: Activity

Row | IC50 [1] | IC50 [2] | Compound
1 | 0.007 µM | – | Cc1cnc2c(c1)nc(CCC(=O)N[C@@H](C)c1ccc(Cl)cc1)n2Cc1ccc(OC(F)(F)F)cc1 [Example 211, N—[(S)-1-(4-chloro-phenyl)-ethyl]-3-[6-methyl-3-(4-trifluoromethoxy-benzyl)-3H-imidazo[4,5-b]pyridin-2-yl]-propionamide]
2 | 0.007 µM | – | COc1ccc([C@H](C)NC(=O)CCc2nc3cc(C)cnc3n2Cc2ccc(OC(F)(F)F)cc2)cc1 [Example 212, N-[(S)-1-(4-Methoxy-phenyl)-ethyl]-3-[6-methyl-3-(4-trifluoromethoxy-benzyl)-3H-imidazo[4,5-b]pyridin-2-yl]-propionamide]
3 | 0.017 µM | – | Cc1cnc2c(c1)nc(CCC(=O)N[C@@H](C)c1ccc(Cl)cc1)n2Cc1ccc(F)cc1 [Example 213, N-[(S)-1-(4-Chloro-phenyl)-ethyl]-3-[3-(4-fluoro-benzyl)-6-methyl-3H-imidazo[4,5-b]pyridin-2-yl]-propionamide]
4 | – | 0.023 µM | COc1ccc(Cn2c(CCC(=O)NCc3ccc(Cl)cc3)nc3cccnc32)cc1 [Example 218, N-(4-Chloro-benzyl)-3-[3-(4-methoxy-benzyl)-3H-imidazo[4,5-b]pyridin-2-yl]-propionamide]
5 | – | 0.089 µM | COc1ccc(Cn2c(CCC(=O)NCc3ccc(F)cc3)nc3cccnc32)cc1 [Example 219, N-(4-Fluoro-benzyl)-3-[3-(4-methoxy-benzyl)-3H-imidazo[4,5-b]pyridin-2-yl]-propionamide]
6 | – | 0.324 µM | O=C(CCc1nc2cccnc2n1Cc1ccccc1)NCc1ccc(F)cc1 [Example 223, 3-(3-Benzyl-3H-imidazo[4,5-b]pyridin-2-yl)-N-(4-fluoro-benzyl)-propionamide]

The remaining lines, values behind:

Row | Compound | IC50 [1] | IC50 [2]
7 | NC[C@H](NC(=O)CCc1nc2cccnc2n1Cc1ccc(OC(F)(F)F)cc1)c1ccccc1 [Example 210, N—((R)-2-amino-1-phenyl-ethyl)-3-[3-(4-trifluoromethoxy-benzyl)-3H-imidazo[4,5-b]pyridin-2-yl]-propionamide] | 0.003 µM | –
8 | CS(=O)(=O)N1CCC(CNC(=O)CCc2nc3cccnc3n2Cc2ccc(OC(F)(F)F)cc2)CC1 [Example 214, N-(1-methanesulfonyl-piperidin-4-ylmethyl)-3-[3-(4-trifluoromethoxy-benzyl)-3H-imidazo[4,5-b]pyridin-2-yl]-propionamide] | 0.03 µM | –
9 | O=C(CCc1nc2cccnc2n1Cc1ccc(OC(F)(F)F)cc1)NCC1CCN(C(=O)C2CC2)CC1 [Example 215, N-(1-Cyclopropanecarbonyl-piperidin-4-ylmethyl)-3-[3-(4-trifluoromethoxy-benzyl)-3H-imidazo[4,5-b]pyridin-2-yl]-propionamide] | 0.081 µM | –
10 | CC(=O)N1CCC(CNC(=O)CCc2nc3cccnc3n2Cc2ccc(OC(F)(F)F)cc2)CC1 [Example 216, N-(1-Acetyl-piperidin-4-ylmethyl)-3-[3-(4-trifluoromethoxy-benzyl)-3H-imidazo[4,5-b]pyridin-2-yl]-propionamide] | 0.495 µM | –
11 | O=C(CCc1nc2cccnc2n1Cc1ccccc1)NCc1ccc(Cl)cc1 [Example 217, 3-(3-Benzyl-3H-imidazo[4,5-b]pyridin-2-yl)-N-(4-chloro-benzyl)-propionamide] | – | 0.029 µM
12 | COc1ccc(Cn2c(CCC(=O)NCc3ccc(C)cc3)nc3cccnc32)cc1 [Example 220, 3-[3-(4-Methoxy-benzyl)-3H-imidazo[4,5-b]pyridin-2-yl]-N-(4-methyl-benzyl)-propionamide] | – | 0.125 µM
13 | COc1ccc(Cn2c(CCC(=O)NCCc3ccc(SC)cc3)nc3cccnc32)cc1 [Example 221, 3-[3-(4-Methoxy-benzyl)-3H-imidazo[4,5-b]pyridin-2-yl]-N-[2-(4-methylsulfanyl-phenyl)-ethyl]-propionamide] | – | 0.154 µM
14 | COc1ccc(CNC(=O)CCc2nc3cccnc3n2Cc2ccc(OC)cc2)cc1 [Example 222, N-(4-Methoxy-benzyl)-3-[3-(4-methoxy-benzyl)-3H-imidazo[4,5-b]pyridin-2-yl]-propionamide] | – | 0.193 µM
